Molecular target: T1, FtsZ (SaFtsZ) (Staphylococcus aureus, UniProt P0A031)
T1 construct: 6× His-FtsZ (N-terminal 6× His tag)
T1 sequence (P0A031 1-390): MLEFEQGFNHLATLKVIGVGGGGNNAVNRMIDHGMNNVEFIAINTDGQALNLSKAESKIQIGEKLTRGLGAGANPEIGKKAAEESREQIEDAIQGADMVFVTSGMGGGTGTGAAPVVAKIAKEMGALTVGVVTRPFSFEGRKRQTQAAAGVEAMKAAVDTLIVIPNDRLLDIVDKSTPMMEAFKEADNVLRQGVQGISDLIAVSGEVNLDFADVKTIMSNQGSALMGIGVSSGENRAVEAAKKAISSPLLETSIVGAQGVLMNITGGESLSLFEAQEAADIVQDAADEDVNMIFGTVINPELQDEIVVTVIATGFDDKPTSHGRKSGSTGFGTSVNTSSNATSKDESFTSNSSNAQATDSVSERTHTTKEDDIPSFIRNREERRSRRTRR
Experiment: isothermal titration calorimetry; also GTPase inhibition and […]° light scattering
Format: binding

Cc1cc2c(C(C)C)c(O)c(O)c(C=O)c2c(O)c1-c1c(C)cc2c(C(C)C)c(O)c(O)c(C=O)c2c1O [S2303, Gossypol acetate]
Kd: 3.6 ± 0.7 µM

— paper PMC9878342, “Gossypol acetate: A natural polyphenol derivative with antimicrobial activities against the essential cell division protein FtsZ” (Frontiers in Microbiology, 2023)
